The numbers were not newly measured in patent US20140051737A1, “METHODS FOR THE TREATMENT AND DIAGNOSTIC OF PULMONARY ARTERIAL HYPERTENSION” (UNIVERSITE LAVAL, priority 2011, published 2014), which cites them from elsewhere.

This data set deals with patients carrying the BRCA1 or BRCA2 mutation. As to conditions: cited from earlier work.

On to `O=C(c1cc(Cc2n[nH]c(=O)c3ccccc23)ccc1F)N1CCN(C(=O)C2CC2)CC1` [olaparib], for which the objective antitumor activity entry is recorded as “only showed objective antitumor activity in patients carrying the BRCA1 or BRCA2 mutation”.
